Legend:
LN-229 cells [1] = assay: Light-activated cytosolic delivery of co-endocytosed dextran, NeutrAvidin and QD; type: cell-based, human; details: for cytosolic delivery of co-endocytosed macromolecule or particle after light stimulation of NPs: LN-229 cells, overnight co-endocytosis with NPs, TRITC-filtered light 30 to 120 s
Description: We then determined whether the NPs could liberate co-endocytosed macromolecules and nanoparticles. […] In this experiment, one set of LN-229 cells was incubated with NPs loaded with a releasable cargo dye (Alexa 546), while a second set was incubated with NPs carrying a dye covalently bound to their matrix during synthesis (Alexa633; so it could not be released). The two cells populations were then plated together, and incubated in the presence of dextran-FITC. […] The lower release kinetics of dextran in the case of the covalently labeled Alexa633-NPs may be explained by a lower excitation efficiency of this fluorophore through the TRITC filter set used for exposure.
LN-229 cells were biotinylated at room temperature with NHS-PEO4-biotin in D-PBS (500 μM, Pierce) supplemented with 10 mM glucose for 30 min, washed ×5 in D-PBS, and trypsinized in 0.01% trypsin/EDTA. Cells were collected with DMEM-10% FBS, centrifuged for 5 min at 1,000 rpm, and resuspended in a 50 μg/mL solution of dye-loaded NP-streptavidin in D-PBS-glucose. After 30 min, the cells were washed twice in D-PBS, resuspended in DMEM-10% FBS, and plated on 12 mm glass coverslips at a density of ˜10^5 cells/cm^2. Dextran-FITC (3 kDa, Sigma), NeutrAvidin-FITC (Pierce), or QD525-streptavidin conjugates (Invitrogen) were added to the cells at respective concentrations of 1 mg/mL, 5 μg/mL, and 2 nM. Cells were placed in a 37° C. incubator overnight with 5% CO2 to allow for coverslip attachment and simultaneous endocytosis of the surface-bound NP-streptavidin conjugates, as well as dextran, NeutrAvidin, or QDs present in the culture medium. After overnight endocytosis, cells were washed twice in D-PBS, and transferred to a live-cell imaging chamber for light stimulation and observation in D-PBS supplemented with 10 mM glucose.
For experiments involving two types of NPs, the orange pseudo-colored NPs were the post-synthesis Alexa 546 loaded NPs used in all other experiments, while the red pseudo-colored NPs were covalently bound to Alexa 633 incorporated during synthesis of the NPs (1 μL of MPTMS and 20 μL of a 10 mM stock solution of Alexa 633-maleimide were incubated overnight at room temperature, and premixed with the silicate precursors before injection into the reaction mixture. Unreacted dye was removed during the surfactant extraction process). The “orange” nanoparticles can release part of their cargo, while the dye is irreversibly bound to the silica matrix for the “red” NPs. After trypsinization, the biotinylated LN-229 cells were incubated separately with each type of NP, and remixed at 1:1 before plating and overnight incubation with dextran-FITC.

LN-229 cells [2] = assay: Light-induced cytosolic release of NP cargo after endocytosis; type: cell-based, human; details: co-incubated overnight with PEI-PEG coated NPs; green light
Description: Following overnight NP endocytosis, cells were exposed to green excitation light (520-550 nm, MWIG3/TRITC filter) for durations ranging from 3 s to 120 s. […] Confocal micrographs were analyzed using the software package Image-J. Average cell fluorescence was determined by manual contouring of cell borders. Data were then imported into Matlab (The Mathworks) for analysis and plotting purposes. The amount of dye released in the cell cytosol following light stimulation was taken as the difference in average cell fluorescence before and after light exposure.

Row | Molecule | cytosolic delivery of co-endocytosed macromolecule or particle after light stimulation of NPs (LN-229 cells [1]) | time to maximum cell fluorescence (LN-229 cells [1]; following the end of 120 s light exposure) | cytosolic delivery of co-endocytosed macromolecule or particle after light stimulation of NPs (LN-229 cells [1]; listed as QD525-streptavidin) | cytosolic release of co-endocytosed compound after light exposure (LN-229 cells [2])
1 | NeutrAvidin: NeutrAvidin-FITC protein conjugate (Pierce) | could also be delivered to the cell cytosol | > 10 min | – | –
2 | dextran-FITC | successfully mediated cytosolic delivery | – | – | –
3 | quantum-dot-streptavidin conjugates: QD525-streptavidin conjugates (Invitrogen) | remained clustered in the endo-lysosomal compartment | – | do not migrate into the cytosol | –
4 | O=C(O)CN(CC(=O)O)Cc1cc2c(cc1O)Oc1cc(O)c(CN(CC(=O)O)CC(=O)O)cc1C21OC(=O)c2ccccc21 [calcein] | – | – | – | cytosolic release

Source: patent US20130289520A1, “TARGETED AND LIGHT-ACTIVATED CYTOSOLIC DRUG DELIVERY” (CHILDREN'S HOSPITAL BOSTON, priority 2010, published 2013)
